{"source": "patent US11554106B2", "about": "“Prevention of the risks associated with drug-induced QT interval prolongation by using a specific inhibitor of the production of ROS of miochondrial origin” (priority 2017, dated 2023)", "key": {"[1]": {"system": "QTcF interval", "assay": "TQT study of moxifloxacin-induced QT prolongation in healthy volunteers", "type": "in vivo, humans", "conditions": "75 mg ATT oral 60 minutes before 400 mg oral moxifloxacin", "experimental": "Principle: Following the 2005 ICH E14 recommendation (FDA, 2005), a TQT study (“through QT study”) was conducted in healthy volunteers to evaluate the protective effect of ATT on QT prolongation induced by a single oral dose of 400 mg moxifloxacin.\nMethodology: This was a single-dose, cross-over study conducted in healthy volunteers.\nThe volunteers, 16 men aged 18 to 40, were selected based on the following criteria: medical history, physical examination (including a BMI between 18 and 26 kg/m2), vital signs, clinical examinations, biological check-up and 12-lead ECG.\nThe selected volunteers were equipped with a Holter ECG for a 24-hour recording.\nFour sequences were tested with a 7-day wash-out period between each: • 1st sequence—no treatment was given; • 2nd sequence—each volunteer received a 400 mg oral dose of moxifloxacin; • 3rd sequence—each volunteer took 75 mg of ATT by mouth (3 tablets of Sulfarlem® 25); and • 4th sequence—each volunteer received a 400 mg oral dose of moxifloxacin, 60 minutes after an oral dose of 75 mg ATT (3 tablets of Sulfarlem® 25). […]"}, "[2]": {"system": "QT and QTc intervals", "assay": "Moxifloxacin-induced QT prolongation in dogs (single-dose cross-over, telemetry ECG)", "type": "in vivo, male Beagle dogs", "experimental": "Principle: This is a single-dose study in dogs to examine the protective effect of ATT on QT prolongation induced by the intravenous (IV) injection of a dose of moxifloxacin, which is considered the reference substance (positive control).\nMethodology: This is a cross-over and single-dose study conducted on 4 groups of 4 male Beagle dogs receiving, depending on the group: • Group 1—control group: intraperitoneal injection [i.p.] of the ATT vehicle; • Group 2—ATT, 5 mg/kg, administered i.p.; • Group 3—moxifloxacin, 15 mg/kg, administered as a slow IV injection in 5% lactic acid at 0.5 mL/kg; and • Group 4—an ATT dose of 5 mg/kg is injected i.p. 30 minutes before a slow IV dose of moxifloxacin of 15 mg/kg (see above).\nIn this study, each dog is equipped with an implantable teletransmitter of the “DSI radio-telemetry transmitter” type allowing continuous ECG recording over 24 hours in 10-minute sequences, including the measurement of PQ, QRS, QT and QTc spaces (correction according to the Van de Water formula), heart rate as well as systolic and diastolic BP and mean BP. ECG analysis is performed using Notocord Systems® ECG51a software and BP analysis using APR30a software, also from Notocord Systems®."}, "[3]": {"conditions": "70 years marketed in France; cited from earlier work"}, "[4]": {"system": "tenocytes", "conditions": "pre-incubation of tenocytes with ATT at 10 μM for 3 hours; oxidative stress induced by FQ (ciprofloxacin, ofloxacin, pefloxacin); cited from earlier work"}, "[5]": {"conditions": "rats; cited from earlier work"}, "[6]": {"system": "acute organochlorine poisoning", "assay": "Treatment of a cat with acute organochlorine poisoning", "type": "in vivo", "conditions": "one cat, unpublished experiment", "source_text": "Knowing that when ROS are overexpressed by mitochondria, this induces a simultaneous overproduction of cytosolic ROS, whose production source is NADPH oxidase (or NOX, usually NOX4 and NOX2), some authors conclude that NOX are the first responsible when in fact mitochondrial production is the culprit (Gosh R. et al., J. Clin. Diagn. Res., 2017, 11: BC09-BC12; Mangum L. C. et al., Chem. Res. Toxicol, 2015, 28: 570-584)."}, "[7]": {"system": "human Jurkat T cells", "conditions": "cited from earlier work"}, "[8]": {"conditions": "marketed form; cited from earlier work"}, "[9]": {"assay": "Solubility in water"}, "[10]": {"system": "1Q site of the respiratory chain", "conditions": "cited from earlier work"}}, "data": [{"smiles": "COc1ccc(-c2cc(=S)ss2)cc1", "note": "[ATT, 5-(4-methoxyphenyl)-3H-1,2-dithiole-3-thione]", "values": [{"measurement": "upper limit of the confidence interval of the effect of moxifloxacin on the QTcF interval", "setting": "[1]", "value": "less than 10 msec"}, {"measurement": "QT and QTc intervals", "setting": "[2]; ATT 5 mg/kg i.p. 30 minutes before moxifloxacin 15 mg/kg slow IV", "value": "maintained in the normal range"}, {"measurement": "side effects relating to long-term use", "setting": "[3]", "value": "no side effects have been reported"}, {"measurement": "cellular production of ROS", "setting": "[4]", "value": "significantly reduces"}, {"measurement": "Vd", "setting": "[5]", "value": "about 2 L/kg"}, {"measurement": "outcome of treatment of acute organochlorine poisoning", "setting": "[6]", "value": "successfully treated"}, {"measurement": "free radical scavenger and antioxidant activity", "setting": "[7]", "value": "powerful free radical scavenger and antioxidant"}]}, {"smiles": "Oc1ccc(-c2cc(=S)ss2)cc1", "note": "[ATX, 4-OH-anethole trithione]", "values": [{"measurement": "circulating product found after oral administration of ATT", "setting": "[8]", "value": "most of the circulating product found is ATX"}, {"measurement": "solubility in water", "setting": "[9]", "value": "insoluble in water"}]}, {"smiles": "O=[N+]([O-])c1ccc(Oc2ccc(S(=O)(=O)NC3CCCCC3)cc2)cc1", "note": "[NC-POBS, N-cyclohexyl-4-(4-nitrophenoxy)benzenesulfonamide]", "values": [{"measurement": "specific inhibition of mitochondrial ROS production", "setting": "[10]", "value": "specific inhibitor of mitochondrial ROS production"}]}, {"smiles": "COc1c(N2C[C@@H]3CCCN[C@@H]3C2)c(F)cc2c(=O)c(C(=O)O)cn(C3CC3)c12", "note": "[moxifloxacin]", "values": [{"measurement": "QT and QTc intervals", "setting": "[2]; moxifloxacin 15 mg/kg slow IV alone", "value": "significantly increased"}]}]}
